Experimental data from ChEMBL document CHEMBL6078703, “Discovery of Novel Thiophene-Based Baloxavir Derivatives as Potent Cap-Dependent Endonuclease Inhibitors for Influenza Treatment” (J Med Chem, 2024).
pEC50: −log10 of the molar value. Activity calls are given as the source filed them. The rule behind the calls is not given here.

Experiments:
[1] = Selectivity index, ratio of CC50 for dog MDCK cells to EC50 for antiviral activity against influenza strain A/WSN/1933 (H1N1) infected in MDCK cells; format: toxicity, cell-based; conditions: read-out: Selectivity Index
Influenza A virus [2] = test: Antiviral activity against influenza strain A/WSN/1933 (H1N1) infected in MDCK cells assessed as reduction of virus-induced cytopathic effect measured after 2 days incubation; format: functional, organism-based; conditions: 48 h
Influenza A virus [3] = test: Antiviral activity against influenza strain A/Aichi/ 2/1968 (H3N2) infected in MDCK cells assessed as reduction of virus-induced cytopathic effect measured after 2 days incubation; format: functional, organism-based; conditions: 48 h
[4] = Selectivity index, ratio of CC50 for dog MDCK cells to EC50 for antiviral activity against influenza strain A/Aichi/ 2/1968 (H3N2) infected in MDCK cells; format: toxicity, cell-based; conditions: read-out: Selectivity Index
[5] = Cytotoxicity against dog MDCK cells assessed as cell viability measured after 48 hrs by CCK-8 assay; format: toxicity, cell-based, Canis lupus familiaris
[6] = Metabolic stability in human liver microsomes assessed as intrinsic clearance measured up to 60 mins by LC-MS/MS analysis; format: ADME, Microsome; conditions: read-out: CLH
[7] = Metabolic stability in mouse liver microsomes assessed as intrinsic clearance measured up to 60 mins by LC-MS/MS analysis; format: ADME, Microsome; conditions: read-out: CLH
[8] = Metabolic stability in human liver microsomes assessed as half life measured up to 60 mins by LC-MS/MS analysis; format: ADME, Microsome
[9] = Metabolic stability in mouse liver microsomes assessed as half life measured up to 60 mins by LC-MS/MS analysis; format: ADME, Microsome
Influenza A virus [10] = test: In vivo antiviral activity against influenza strain A/WSN/1933 (H1N1) infected in BALB/c mouse assessed as improvement in septal thickening in lungs at 20 to 40 mg/kg, IG treated 12 hrs after infection measured on 9 dpi by histopathological analysis; format: functional, organism-based; conditions: dose 20-40 mg/kg, time 9.0 day
Influenza A virus [11] = test: In vivo antiviral activity against influenza strain A/WSN/1933 (H1N1) infected in BALB/c mouse assessed as improvement in alveolar collapse in lungs at 20 to 40 mg/kg, IG treated 12 hrs after infection measured on 9 dpi by histopathological analysis; format: functional, organism-based; conditions: dose 20-40 mg/kg, time 9.0 day
[12] = AUC (0 to infinity) in CD-1 mouse at 1 mg/kg, iv measured up to 24 hrs by LC-MS/MS analysis; format: ADME, organism-based; conditions: mouse, in vivo, iv, 1 mg/kg, 24 h
[13] = Cytotoxicity against human HepG2 cells assessed as cell viability measured after 48 hrs by CCK-8 assay; format: toxicity, cell-based
Influenza A virus [14] = test: Antiviral activity against influenza virus clinical strain H3N2 (A/Guangdong/2/2023) infected in MDCK cells assessed as reduction of virus-induced cytopathic effect measured after 2 days incubation; format: functional, organism-based; conditions: 48 h
Influenza A virus [15] = test: In vivo antiviral activity against influenza strain A/WSN/1933 (H1N1) infected in BALB/c mouse assessed as weight regaining at 10 to 40 mg/kg, IG treated 12 hrs after infection measured on 9 dpi; format: functional, organism-based; conditions: dose 10-40 mg/kg, time 9.0 day
[16] = Oral bioavailability in CD-1 mouse at 15 mg/kg measured up to 24 hrs by LC-MS/MS analysis; format: ADME, organism-based; conditions: mouse, in vivo, po, 15 mg/kg, 24 h
[17] = Cytotoxicity against human Huh-7 cells assessed as cell viability measured after 48 hrs by CCK-8 assay; format: toxicity, cell-based
[18] = Cytotoxicity against human Hep3B cells assessed as cell viability measured after 48 hrs by CCK-8 assay; format: toxicity, cell-based, Hep 3B2
[19] = Cytotoxicity against human 786O cells assessed as cell viability measured after 48 hrs by CCK-8 assay; format: toxicity, cell-based, 786-0
Influenza A virus [20] = test: In vivo antiviral activity against influenza strain A/WSN/1933 (H1N1) infected in BALB/c mouse assessed as increase in mouse survival at 10 to 40 mg/kg, IG treated 12 hrs after infection measured on 9 dpi; format: functional, organism-based; conditions: dose 10-40 mg/kg, time 9.0 day
[21] = AUC (0 to infinity) in CD-1 mouse at 15 mg/kg, po measured up to 24 hrs by LC-MS/MS analysis; format: ADME, organism-based; conditions: mouse, in vivo, po, 15 mg/kg, 24 h

SMILES	selectivity ratio [1]	pEC50 (Influenza A virus [2])	pEC50 (Influenza A virus [3])	selectivity ratio [4]	CC50 at 48 h [5]	other results
O=C1c2c(O)c(=O)ccn2N([C@H](c2ccc(F)cc2)c2cccs2)[C@@H]2COCCN12	8390	8.50	–	–	–	–
Cc1ccc([C@H](c2cccs2)N2[C@@H]3COCCN3C(=O)c3c(O)c(=O)ccn32)cc1C	429	7.32	8.09	2530	20500 nM	–
O=C1c2c(O)c(=O)ccn2N([C@@H](c2ccc(F)c(F)c2)c2ccc(-c3ccccc3)s2)[C@@H]2COCCN12	1100	7.44	7.95	3580	39800 nM	–
O=C1c2c(O)c(=O)ccn2N([C@H](c2ccc(F)c(F)c2)c2cc3ccccc3s2)[C@@H]2COCCN12	> 2400	7.68	7.69	> 2460	> 50000 nM	–
O=C1c2c(O)c(=O)ccn2N([C@@H](c2cccs2)c2cc(F)c(F)c(F)c2F)[C@@H]2COCCN12	> 8860	8.25	8.11	> 6430	> 50000 nM	–
O=C1c2c(O)c(=O)ccn2N([C@H](c2ccc(F)c(F)c2)c2ccc(Br)s2)[C@@H]2COCCN12	353	7.31	7.55	613	17300 nM	–
O=C1c2c(O)c(=O)ccn2N([C@@H](c2ccc(F)c(F)c2)c2ccc(Br)s2)[C@@H]2COCCN12	652	7.52	7.50	623	19700 nM	–
O=C1c2c(O)c(=O)ccn2N([C@@H](c2cc(F)c(F)c(F)c2)c2cccs2)[C@@H]2COCCN12	> 5350	8.03	8.27	> 9210	> 50000 nM	–
O=C1c2c(O)c(=O)ccn2N([C@H](c2ccc(F)c(F)c2)c2ccc(Cl)s2)[C@@H]2COCCN12	1510	7.80	7.51	783	24100 nM	–
O=C1c2c(O)c(=O)ccn2N([C@H](c2cccc(F)c2)c2cccs2)[C@@H]2COCCN12	9840	8.46	7.58	1320	34300 nM	–
O=C1c2c(O)c(=O)ccn2N([C@H](c2ccc3ccccc3c2)c2cccs2)[C@@H]2COCCN12	752	7.64	7.12	–	17200 nM	–
O=C(O)Cc1ccccc1Nc1c(Cl)cccc1Cl [DICLOFENAC]	–	–	–	–	–	CLint scaled [6]: 221 mL/min/kg; CLint scaled [7]: 136 mL/min/kg
O=C1c2c(O)c(=O)ccn2N([C@@H](c2ccc(Br)c(Br)c2)c2cccs2)[C@@H]2COCCN12	> 1400	7.45	8.16	> 7250	> 50000 nM	–
O=C1c2c(O)c(=O)ccn2N([C@@H](c2ccc(F)c(F)c2)c2cc3ccccc3s2)[C@@H]2COCCN12	> 1180	7.37	8.22	> 8360	> 50000 nM	–
O=C1c2c(O)c(=O)ccn2N([C@@H](c2ccc(Cl)c(Cl)c2)c2cccs2)[C@@H]2COCCN12	729	7.35	7.22	539	32600 nM	–
O=C1c2c(O)c(=O)ccn2N([C@@H](c2ccc(F)cc2)c2cccs2)[C@@H]2COCCN12	7440	8.30	8.78	22800	37600 nM	half-life [8]: 12.8 h; CLint scaled [6]: 1.62 mL/min/kg; half-life [9]: 23.1 h; CLint scaled [7]: 3.96 mL/min/kg
O=C1c2c(O)c(=O)ccn2N([C@H](c2ccc(F)c(F)c2)c2cccs2)[C@@H]2COCCN12	3140	8.09	8.51	8200	25200 nM	half-life [8]: 4.45 h; CLint scaled [6]: 4.68 mL/min/kg; half-life [9]: 7.7 h; CLint scaled [7]: 11.9 mL/min/kg
Cc1ccc([C@@H](c2cccs2)N2[C@@H]3COCCN3C(=O)c3c(O)c(=O)ccn32)cc1C	4190	8.18	8.75	15600	28000 nM	–
O=C1c2c(O)c(=O)ccn2N([C@H](c2ccc(Br)c(Br)c2)c2cccs2)[C@@H]2COCCN12	1540	7.79	7.75	1410	24900 nM	–
O=C1c2c(O)c(=O)ccn2N([C@H](c2ccccc2)c2cccs2)[C@@H]2COCCN12	> 1370	7.44	7.33	> 1070	> 50000 nM	–
O=C1c2c(O)c(=O)ccn2N([C@@H](c2ccc3ccccc3c2)c2cccs2)[C@@H]2COCCN12	960	7.37	7.27	758	40600 nM	–
O=C1c2c(O)c(=O)ccn2N([C@@H]2c3ccccc3SCc3c2ccc(F)c3F)[C@@H]2COCCN12 [BALOXAVIR]	5290	8.75	8.42	2440	–	Activity (Influenza A virus [10]): Active; Activity (Influenza A virus [11]): Active; AUC [12]: 239 ng·h/mL; CC50 at 48 h [13]: 19100 nM; pEC50 (Influenza A virus [14]): 8.76; Activity (Influenza A virus [15]): Active; Surviving Animals Gradually Starting Weight Weight Beginning 9 Dpi; F [16]: 27.2%; CC50 at 48 h [17]: 9340 nM; CC50 at 48 h [18]: 7380 nM; CC50 at 48 h [19]: 2860 nM; Activity (Influenza A virus [20]): Active; AUC [21]: 2877 ng·h/mL
O=C1c2c(O)c(=O)ccn2N([C@@H](c2ccccc2)c2cccs2)[C@@H]2COCCN12	> 1260	7.40	7.66	> 2300	> 50000 nM	–
O=C1c2c(O)c(=O)ccn2N([C@@H](c2cccc(F)c2)c2cccs2)[C@@H]2COCCN12	> 9020	8.26	7.82	> 3290	> 50000 nM	–
O=C1c2c(O)c(=O)ccn2N([C@@H](c2ccc(F)c(F)c2)c2ccc(Cl)s2)[C@@H]2COCCN12	663	7.53	7.28	373	19400 nM	–
O=C1c2c(O)c(=O)ccn2N([C@H](c2ccc(F)c(F)c2)c2ccc(-c3ccccc3)s2)[C@@H]2COCCN12	2380	7.69	8.43	12900	48500 nM	–
O=C1c2c(O)c(=O)ccn2N([C@H](c2cc(F)c(F)c(F)c2)c2cccs2)[C@@H]2COCCN12	13600	8.72	7.66	1190	26000 nM	–
O=C1c2c(O)c(=O)ccn2N([C@H](c2ccc(Cl)c(Cl)c2)c2cccs2)[C@@H]2COCCN12	215	7.25	7.89	931	12100 nM	–
O=C1c2c(O)c(=O)ccn2N([C@H](c2cccs2)c2cc(F)c(F)c(F)c2F)[C@@H]2COCCN12	> 4020	7.90	7.86	> 3630	> 50000 nM	–
